Experiment [1] has as its target interaction between PD-1 and PD-L1 (Homo sapiens, UniProt Q9NZQ7). Put plainly: PD-1/PD-L1 protein-protein interaction assay (ALPHA). Format: binding. To be noted: 2 nM His-tagged human PD-L1, 0.6 nM PD-1-Fc, AlphaScreen. (In general: Bead proximity is the source of the signal in Alpha formats.)
A further experiment concerns the target T1, PD-1/PD-L1 interaction (Homo sapiens, UniProt Q9NZQ7).
T1 construct: expressed in transfected cells
Put plainly: PD-1/PD-L1 blockage cell-based bioassay (Jurkat NFAT luciferase / CHO-PDL1 co-culture). To be noted: Jurkat NFAT cells co-cultured with CHO-PDL1 cells, 6 h, luminescence.

T1 sequence (Q9NZQ7 19-290): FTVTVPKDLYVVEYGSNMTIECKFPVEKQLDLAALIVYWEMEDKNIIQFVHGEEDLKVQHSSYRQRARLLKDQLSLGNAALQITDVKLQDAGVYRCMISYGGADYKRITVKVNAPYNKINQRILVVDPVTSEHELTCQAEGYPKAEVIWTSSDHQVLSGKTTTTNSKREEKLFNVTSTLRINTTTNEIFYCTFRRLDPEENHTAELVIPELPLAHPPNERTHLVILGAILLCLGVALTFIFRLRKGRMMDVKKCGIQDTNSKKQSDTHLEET
Sequence of interaction between PD-1 and PD-L1 (Q9NZQ7 19-238 limits assumed): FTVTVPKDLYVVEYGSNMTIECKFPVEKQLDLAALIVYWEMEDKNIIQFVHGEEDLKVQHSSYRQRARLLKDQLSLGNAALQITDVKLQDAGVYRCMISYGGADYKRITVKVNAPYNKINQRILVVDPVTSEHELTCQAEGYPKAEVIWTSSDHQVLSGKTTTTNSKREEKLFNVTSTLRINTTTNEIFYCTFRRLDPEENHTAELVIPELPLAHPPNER

The term IC50 denotes the concentration that inhibits the measured activity by half. As to `COc1cc(-n2ncc3c(-c4cccc(Nc5nc(C(F)F)nc6cc(CN7CC[C@@H](C(=O)O)C7)cnc56)c4C)cccc32)cc(OC)c1CN1CC[C@@H](O)C1` [Example 165, (R)-1-((2-(difluoromethyl)-4-((3-(1-(4-(((R)-3-hydroxypyrrolidin-1-yl)methyl)-3,5-dimethoxyphenyl)-1H-indazol-4-yl)-2-methylphenyl)amino)pyrido[3,2-d]pyrimidin-7-yl)methyl)pyrrolidine-3-carboxylic acid], the IC50 was under 1 nM in experiment [1] and under 200 nM on PD-1/PD-L1 interaction.
On to `COc1cc(-n2ncc3c(-c4cccc(-c5ccc(CN[C@H]6C[C@@H](O)C6)c(OC)n5)c4Cl)cccc32)cc(OC)c1CNCC1(C(N)=O)CC1` [Example 131, 1-(((4-(4-(2-chloro-3-(5-(((cis-3-hydroxycyclobutyl)amino)methyl)-6-methoxypyridin-2-yl)phenyl)-1H-indazol-1-yl)-2,6-dimethoxybenzyl)amino)methyl)cyclopropane-1-carboxamide], for which the IC50 is 1 to 10 nM in experiment [1] and 201 to 2000 nM against PD-1/PD-L1 interaction.
With `COc1cc(-n2ncc3c(-c4cccc(-c5ccc(CN6CC7(CNC(=O)C7)C6)c(OC)n5)c4Cl)cccc32)cc(OC)c1CN1CC(C(C)(C)O)C1` [Example 137, 2-((6-(2-chloro-3-(1-(4-((3-(2-hydroxypropan-2-yl)azetidin-1-yl)methyl)-3,5-dimethoxyphenyl)-1H-indazol-4-yl)phenyl)-2-methoxypyridin-3-yl)methyl)-2,6-diazaspiro[3.4]octan-7-one], the IC50 in experiment [1] was under 1 nM; against PD-1/PD-L1 interaction it was 201 to 2000 nM.
For `COc1cc(-n2ccc3c(-c4cccc(-c5ccc(CN6CC[C@@H](O)C6)c(OC)n5)c4Cl)ccnc32)cc(OC)c1CNC[C@@H]1CCC(=O)N1` [Example 34], the IC50 in experiment [1] was 1 to 10 nM; against PD-1/PD-L1 interaction, over 2000 nM.
Turning to `COc1cc(-n2ccc3c(-c4cccc(-c5ccc(CNCC6CNC6)c(OC)n5)c4Cl)cccc32)cc(OC)c1CNC[C@@H]1CCC(=O)N1` [Example 33], the values for the IC50 (in experiment [1]; at PD-1/PD-L1 interaction) were 10 to 100 nM and over 2000 nM, respectively.
For the molecule `COc1cc(-n2ccc3c(-c4ccc5c(c4)OCCO5)cccc32)cc(OC)c1CNC(C)(CO)C(=O)O` (centres unmarked) [Example 1, 2-((4-(4-(2,3-dihydrobenzo[b][1,4]dioxin-6-yl)-1H-indol-1-yl)-2,6-dimethoxybenzyl)amino)-3-hydroxy-2-methylpropanoic acid], the IC50 in experiment [1] was 10 to 100 nM; against PD-1/PD-L1 interaction it was over 2000 nM.
Turning to `COc1cc(-n2ncc3c(-c4cccc(-c5ccc(CN6CC7(CNC(=O)C7)C6)c(OC)n5)c4Cl)cccc32)cc(OC)c1CN1CC(C)(C(N)=O)C1` [Example 103, 1-(4-(4-(2-chloro-3-(6-methoxy-5-((7-oxo-2,6-diazaspiro[3.4]octan-2-yl)methyl)pyridin-2-yl)phenyl)-1H-indazol-1-yl)-2,6-dimethoxybenzyl)-3-methylazetidine-3-carboxamide], the IC50 in experiment [1] is 1 to 10 nM; against PD-1/PD-L1 interaction it was under 200 nM.
For `COc1cc(-n2ncc3c(-c4cccc(-c5ccc(CN6CC7(CNC(=O)C7)C6)c(OC)n5)c4Cl)cccc32)ncc1CNCCO` [Example 132, 2-((6-(2-chloro-3-(1-(5-(((2-hydroxyethyl)amino)methyl)-4-methoxypyridin-2-yl)-1H-indazol-4-yl)phenyl)-2-methoxypyridin-3-yl)methyl)-2,6-diazaspiro[3.4]octan-7-one] the same measures were under 1 nM and under 200 nM.
For `COc1cc(-n2ncc3c(-c4cccc(-c5ccc(CN6CC7(CNC(=O)C7)C6)c(OC)n5)c4Cl)cccc32)cc(OC)c1CN[C@H]1C[C@@H](O)C1` [Example 97, 2-((6-(2-chloro-3-(l-(4-(((cis-3-hydroxycyclobutyl)amino)methyl)-3,5-dimethoxyphenyl)-1H-indazol-4-yl)phenyl)-2-methoxypyridin-3-yl)methyl)-2,6-diazaspiro[3.4]octan-7-one] the same measures were under 1 nM and under 200 nM.
In the same order, the values of `COc1cc(-n2ncc3c(-c4cccc(-c5ccc(CN6CC7(CNC(=O)C7)C6)c(OC)n5)c4Cl)cccc32)cc(OC)c1CNC[C@H]1C[C@@H](O)C1` [Example 91, 2-((6-(2-chloro-3-(1-(4-(((((cis)-3-hydroxycyclobutyl)methyl)amino)methyl)-3,5-dimethoxyphenyl)-1H-indazol-4-yl)phenyl)-2-methoxypyridin-3-yl)methyl)-2,6-diazaspiro[3.4]octan-7-one] are 1 to 10 nM and 201 to 2000 nM.
As for `COc1cc(-n2ccc3c(-c4cccc(-c5ccc(CN6CC(C)(O)C6)c(OC)n5)c4Cl)cccc32)cc(OC)c1CNC[C@@H]1CCC(=O)N1` [Example 35], the IC50 is 1 to 10 nM in experiment [1] and 201 to 2000 nM on PD-1/PD-L1 interaction.
In the case of `COc1cc(-n2ncc3c(-c4cccc(-c5ccc(CNC[C@@H]6CCC(=O)N6)c(OC)n5)c4Cl)cccc32)cc(OC)c1CN1CC(C)(C(=O)NC2CC2)C1` [Example 88, (S)-1-(4-(4-(2-chloro-3-(6-methoxy-5-((((5-oxopyrrolidin-2-yl)methyl)amino)methyl)pyridin-2-yl)phenyl)-1H-indazol-1-yl)-2,6-dimethoxybenzyl)-N-cyclopropyl-3-methylazetidine-3-carboxamide], the values for the 50% inhibitory concentration (IC50) (in experiment [1]; on PD-1/PD-L1 interaction) were 1 to 10 nM and 201 to 2000 nM, respectively.
Consider `COc1cc(-n2ccc3c(-c4cccc(-c5ccc(CNC[C@@H]6CCC(=O)N6)c(OC)n5)c4Cl)cccc32)cc(OC)c1CN1CC(C)(O)C1` [Example 53], for which the IC50 in experiment [1] is under 1 nM; at PD-1/PD-L1 interaction it was 201 to 2000 nM.

For the origin of these results see patent publication US20240336601A1 (Chulalongkorn University, priority 2020, published 2024).
